O=C(NC[C@H]1CN(c2ccc(N3CCOCC3=O)cc2)C(=O)O1)c1ccc(Cl)s1
solubility (mole fraction)
Settings | 278.15 K | 283.15 K | 288.15 K | 293.15 K | 298.15 K | 303.15 K | 308.15 K | 313.15 K | 318.15 K
in DMAc | 0.00978 | 0.0108 | 0.0119 | 0.0131 | 0.0144 | 0.0158 | 0.0173 | 0.0189 | 0.0206
in DMF | 0.00586 | 0.00662 | 0.00747 | 0.0084 | 0.00943 | 0.0106 | 0.0118 | 0.0132 | 0.0147
in THF | 0.000205 | 0.00023 | 0.000263 | 0.00029 | 0.000328 | 0.000359 | 0.000401 | 0.00045 | 0.000511
in ethyl acetate | 5.17e-05 | 5.93e-05 | 6.79e-05 | 7.74e-05 | 8.81e-05 | 0.0001 | 0.000113 | 0.000128 | 0.000144

Reference: BigSolDB 2.1
